Patent US10577322B2, “5-methoxytryptophan and its derivatives and uses thereof” (National Health Research Institutes, priority 2015, dated 2020)

Tests used:
COX-2 = test: PMA-induced COX-2 expression in A549 cells (immunoblot); format: cell-based; details: for PMA-induced COX-2 protein expression: 30 min pretreatment, PMA 8 h
Procedure: Cellular protein were resolved by 5% to 20% SDS-PAGE and transferred to nitrocellulose membranes and blotted with specific antibodies as previously described (Lee, G. L., et al.).
After pretreating A549 cells with different concentrations of 5-MTP, 5-MTPE and NACT-5-MTP for 30 min, cells were stimulated with PMA for 8 h. Cell lysates were immunoblotted with antibodies for COX-2 or β-actin.

[1] = system: BT474 breast cancer cells; test: Transwell cell migration assay, BT474; format: cell-based; details: 30 min pretreatment, PMA 4 h or 24 h
Procedure: (§1) Briefly, cells (10^4/well) were seeded on the upper chamber (6.5-mm insert, 8-μm polycarbonate membrane; Corning Inc.), which was placed in each well of a 24-well plate. The lower chamber was filled with 700 μL DMEM supplemented with 10% FBS. For assessment of in vitro invasion, cells were seeded onto the upper chamber insert coated with Matrigel (BD Biosciences) under the same conditions as the transwell migration assays. At the indicated time, nonmigrated cells that remained at the top surface of the insert were removed with a cotton swab. Cells that migrated to the lower membrane surface and cells that invaded through the matrigel gel to the underside of the membrane were fixed, stained with 0.1% crystal violet for 20 min, and counted under light microscopy. All of the assays were done in triplicate with excellent reproducibility.
(§2) Lung cancer A549 and breast cancers BT474 and T47D cells were pretreated with different concentrations of 5-MTP or 5-MTPE for 30 min, then stimulated with PMA for 4 h or 24 h. Cell migration was measured by the transwell migration assay.

A549 subcutaneous tumor = test: Tumor xenograft experiment (A549 s.c. in SCID mice); format: in vivo; details: 100 mg/kg intraperitoneal twice weekly; for subcutaneous tumor volume: 7 weeks
Procedure: Six-week-old male CB-17 SCID mice, purchased from BioLASCO, were housed in a daily cycle of 12-h light and 12-h darkness and pathogen-free conditions at 26° C. at the Animal Center of the National Health Research Institutes. A549-luc-C8 cells (Caliper Life Sciences), cultured in RPMI-1640 supplemented with 10% FBS, were pretreated with 100 μM 5-MTP, 100 μM 5-MTPE or vehicle for 5 h and were inoculated into the flank of mice subcutaneously (s.c.) (5×10^6 cells/mouse). The 5-MTP-, or 5-MTPE-treated mice (n=10) were injected with 100 mg 5-MTP or 5-MTPE /kg body weight intraperitoneally twice weekly. The vehicle group (n=10) was injected with vehicle (0.033 N HCl in RPMI medium, neutralized with NaOH) twice weekly. The size of s.c. tumors were caliper-measured twice weekly. The tumor volume was calculated according to the formula of length×width×width/2. The tumor growth was also monitored weekly by an IVIS spectrum imaging system. Mice were euthanized at day 52. Subcutaneous tumors and lungs were removed and fixed with 10% Formalin. Nodules on each lobe of the lungs were counted. Histology of the nodules was examined under microscopy by tissue section and H&E staining. The animals' care was in accordance with institutional guidelines and the protocol of in vivo experiments was approved by the Institutional Animal Care and Utilization Committee of the National Health Research Institutes.
In addition, A549 (5×10^6 cells) was injected subcutaneously into the flank of SCID-Beige mice. 10 mice each received intraperitoneal injection of 5-MTP (100 mg/kg), 5-MTPE (100 mg/kg) or vehicle twice weekly. Caliper measurement of the subcutaneous tumor volume periodically for 7 weeks. […] The average tumor volume at 7-week in the 5-MTP treated group was ˜50% of that in the control group.

A549 lung cancer cells = test: Transwell cell migration assay, A549; format: cell-based; details: 30 min pretreatment, PMA 4 h or 24 h
Procedure: as §1, §2

IL-6 = test: LPS-induced IL-6 level in RAW264.7 culture supernatants (ELISA); format: cell-based, mouse; details: RAW264.7 cells; for LPS-induced IL-6 level in culture supernatants: 30 min pretreatment, LPS 24 h
Procedure: Mouse RAW264.7 macrophages were from the American Type Culture Collection and cultured in DMEM containing 10% FBS. […] The duration of LPS (100 ng/ml) treatment varied depending on the experiment.
Moreover, RAW264.7 cells and IL-6 promoter-luciferase plasmid transfected RAW264.7 cells were pretreated with different concentrations of 5-MTP for 30 min, followed by LPS stimulation for 8 h. IL-6 promoter activity was measured by luciferase assay. IL-6 level in culture supernatants was measured by ELISA.
Furthermore, RAW264.7 cells were treated with different concentrations of 5-MTP or 5-MTPE for 24 h. Cell viability was determined by MTT assay. In another experiment, after pretreating RAW264.7 cells with different concentrations of 5-MTP or 5-MTPE for 30 min, cells were stimulated with LPS for 24 h. IL-6 level in culture supernatants was measured by ELISA.
(§3) Herein, after pretreating RAW264.7 cells with different concentrations of 5-MTP, 5-MTPE, COX-2 inhibitors (NSC398 or SC560) and NF-κB inhibitor JSH-23 for 30 min, cells were stimulated with LPS. In addition, RAW264.7 cells were also transfected with COX-2 promoter-luciferase plasmid. After 24 h transfection, the cells were incubated with LPS for 8 h. Luciferase activity as measured.

T47D breast cancer cells = test: Transwell cell migration assay, T47D; format: cell-based; details: 30 min pretreatment, PMA 4 h or 24 h
Procedure: as §1, §2

[2] = system: vascular smooth muscle cells; test: Calcifying medium-induced calcification in vascular smooth muscle cells; format: cell-based
Text: Vascular smooth muscle cell (VSMC) calcification is the major phenomenon to induce atherosclerotic vascular calcification in cardiovascular disease (CVD). We next investigated the effect of 5-MTP derivatives on VSMC calcification.

COX-2 promoter = test: COX-2 promoter-luciferase assay in RAW264.7 cells; format: cell-based, mouse; details: for LPS-induced COX-2 promoter activity (luciferase): LPS 8 h
Procedure: RAW264.7 macrophages were cotransfected with COX-2 promoter-luciferase, IL-6 promoter-luciferase constructs as previously described (Lee, G. L., et al.) or p5xNF-κB-luciferase (Stratagene) and pcDNA3.1-β-galactosidase plasmids using FuGENE 6 (Roche). After overnight transfection, the cells were incubated with or without LPS in the presence or absence of 5-MTP for 8 h. After treatment, cells were lysed, and luciferase activity was measured using an assay kit (Promega). β-galactosidase activity was used to normalize the data.
After pretreating mouse macrophage RAW264.7 cells with different concentrations of 5-MTP for 30 min, cells were stimulated with LPS for 8 h. Cell lysates were immunoblotted with antibodies for COX-2 or β-actin. In addition, RAW264.7 cells were transfected with COX-2 promoter-luciferase plasmid. After 24 h transfection, the cells were incubated with LPS for 8 h. Luciferase activity was measured. The experiments were repeated 3 times with similar results. The results shown in FIGS. 3A-3B confirmed that 5-MTP blocked LPS-induced COX-2 protein expression and promoter activity in a concentration-dependent manner in RAW264.7 cells.
as §3

Row | Structure (SMILES) | PMA-induced COX-2 protein expression (COX-2) | PMA-induced BT474 cell migration [1] | average tumor volume at 7-week, of that in the control group (A549 subcutaneous tumor) [%] | subcutaneous tumor volume (A549 subcutaneous tumor) | PMA-induced A549 cell migration (A549 lung cancer cells) | LPS-induced IL-6 level in culture supernatants (IL-6) | LPS-induced IL-6 protein expression (IL-6; LPS 8 h) | PMA-induced T47D cell migration (T47D breast cancer cells) | calcifying medium-induced calcification [2] | LPS-induced COX-2 promoter activity (luciferase) (COX-2 promoter) | COX-2 suppressive activity compared with 5-MTP (COX-2; PMA) | LPS-induced IL-6 level in culture supernatants (IL-6; listed as 5MTPE) | suppressive capacity on IL-6 production in comparison with 5-MTP, COX-2 inhibitors (IL-6; 24 h after LPS) | IL-6 suppressive activity compared with JSH-23 (IL-6; LPS) | COX-2 suppressive activity compared with JSH-23 (COX-2 promoter; LPS)
1 | COc1ccc2[nH]cc(C[C@H](N)C(=O)O)c2c1 [5-MTP, 5-methoxytryptophan] | suppress | abrogated | ~50 | suppressed tumor volume in a time-dependent manner | abrogated | dose-dependently blocked | inhibited | abrogated | reduced | dose-dependently blocked | – | – | – | – | –
2 | COC(=O)C(N)Cc1c[nH]c2ccc(OC)cc12 (centres unmarked) [5-MTPE, ester-5-MTP] | dose-dependently blocked | abrogated | – | suppressed tumor volume in a time-dependent manner | abrogated | significantly inhibited | – | abrogated | reduced | dose-dependently blocked | potent than that of 5-MTP | dose-dependently blocked | better suppressive capacity | potent than that of NF-κB inhibitor JSH-23 | potent than that of NF-κB inhibitor JSH-23
